From patent US10844091B2 (priority 2017, dated 2020)

Experiments:
Type in all cases: in vivo
[1] = tested on: rat models with Alzheimer's disease; assay: Conditioned passive avoidance reflex (CPAR) test, scopolamine-induced Alzheimer's disease model; conditions: for AA less than in the tetrapeptide (LYS) group: donepezil 1 mg/kg; for number of animals who reached the CPAR learning criterium: % of total trained animals, criterium at least 180 sec in light area
Protocol: (§1) White random-bred adult male rats weighing 200-240 g were used. Groups of 7 animals per group were formed. 1st group—control, 2nd—pathology, 3rd—comparator drug, 4th-6th—neuropeptides.
(§2) Scopolamine was administered i.p. to the animals in all groups except for the control at a 1 mg/kg dose daily, once a day for 27 days. From the 28th day on, the animals in groups 2 and 3 were administered the comparator drug and the claimed preparation respectively over the course of 10 days. The drugs were administered daily, once a day.
(§3) The tetrapeptides were administered i.n at a 0.1 mg/kg dose. The animals in the pathology group received 0.9% sodium chloride solution i.n. and i.p. as a placebo.
(§4) The OF and EE tests were conducted on the 1st day, PST—on the 2nd day, CPAR—on the 1st and 10th day post treatment with the preparations. […] The antiamnesic action (AA) in the CPAR test was calculated using Butler's formula [K. S. Radionova. […] After that, the animals were removed from the experiment by administering a narcotic, followed by decapitation. The brain was extracted and weighed, and the brain weight coefficient (BWC) was calculated. Immediately after extraction, the brain was frozen in liquid nitrogen and used in subsequent biochemical and histochemical studies. Glucose levels in whole arterial (common carotid artery) and venous (venous cerebral sinus) blood were determined by the glucose oxidase test, the difference in the arterial-venous glucose content was calculated (glucose consumption marker). The levels of average weight molecules—the toxic products of cell biodegradation damaged during the disease (nucleoside derivatives, peptoids, glucuronic acid salts, etc.) in the blood serum (AWM) were calculated [A. N. Kovalevsky. Notes on the screening method of determination average weight molecules/A. N. Kovalevsky, O. Ye. Nifantiev//Lab. Science. […] 35-39].

[2] = tested on: rat models with Alzheimer's disease; assay: Extrapolation escape (EE) test, scopolamine-induced Alzheimer's disease model; conditions: 3 min test; scopolamine 1 mg/kg i.p. 27 days; donepezil 1 mg/kg i.p. 10 days, peptide (LYS) 0.1 mg/kg i.n. 10 days
Protocol: as §1, §2, §3, §4

rat models with AD = assay: Porsolt swim test (PST), scopolamine-induced Alzheimer's disease model; conditions: AD rats; donepezil 1 mg/kg i.p., tetrapeptide (LYS) 0.1 mg/kg i.n.
Protocol: as §1, §2, §3, §4

COc1cc2c(cc1OC)C(=O)C(CC1CCN(Cc3ccccc3)CC1)C2 (centres unmarked) [donepezil, reference compound]
AA less than in the tetrapeptide (LYS) group ([1]; 10th day): 1.9 times | Latent period of entry into the dark area of the CPAR device, In 24 hrs. ([1]; In 24 hrs., scopolamine + donepezil 1 mg/kg or tetrapeptide (LYS) 0.1 mg/kg i.n.): 93.29 ± 26.11 s | Latent period of entry into the dark area of the CPAR device, In 10 days ([1]; In 10 days, scopolamine + donepezil 1 mg/kg or tetrapeptide (LYS) 0.1 mg/kg i.n.): 69.43 ± 11.10^ sec. | Latent period of entry into the dark area of the CPAR device, Initial ([1]; Initial, scopolamine + donepezil 1 mg/kg or tetrapeptide (LYS) 0.1 mg/kg i.n.): 24.00 ± 6.23 s | number of animals who reached the CPAR learning criterium ([1]; first day): 28.6% | AA less than in the tetrapeptide (LYS) group ([1]; first day): 2.9 times | number of animals who reached the CPAR learning criterium ([1]; tenth day): goes down to the level of the pathology group | % of animals succeeded [2]: 100% | Escape time [2]: 18.86 ± 3.57 s | Latent period of immobilization (rat models with AD): 69.43 ± 12.64 s | Number of immobilization acts (rat models with AD): 9.29 ± 1.66
